Measured values taken from US12281080B2, “Quinoline-based compounds and methods of inhibiting CDK8/19” (University of South Carolina, priority 2018, dated 2025).

Experiments:
MRCKA (CDC42BPA) = MRCKA (CDC42BPA) (Homo sapiens (Human), UniProt Q5VT25); experiment: KINOMEscan scanMAX; format: binding; conditions: 2000 nM; read-out: Percent Control
BUB1 = BUB1 (Homo sapiens (Human), UniProt O43683); experiment: KINOMEscan scanMAX; format: binding; conditions: 2000 nM; read-out: Percent Control
PIM3 = PIM3 (Homo sapiens (Human), UniProt Q86V86); experiment: KINOMEscan scanMAX; format: binding; conditions: 2000 nM; read-out: Percent Control
[1] = Mouse pharmacokinetics, intraperitoneal, serum; format: in vivo, mice
Description: […] Blood samples were collected at different time points (5 mice per time point) and Senexin C concentration in the serum was measured by LC/MS/MS.

DAPK3 = DAPK3 (Homo sapiens (Human), UniProt O43293); experiment: KINOMEscan scanMAX; format: binding; conditions: 2000 nM; read-out: Percent Control
MAP3K4 = MAP3K4 (Homo sapiens (Human), UniProt Q9Y6R4); experiment: KINOMEscan scanMAX; format: binding; conditions: 2000 nM; read-out: Percent Control
PKN1 = PKN1 (Homo sapiens (Human), UniProt Q16512); experiment: KINOMEscan scanMAX; format: binding; conditions: 2000 nM; read-out: Percent Control
MINK (MINK1) = MINK (MINK1) (Homo sapiens (Human), UniProt Q8N4C8); experiment: KINOMEscan scanMAX; format: binding; conditions: 2000 nM; read-out: Percent Control
PIP5K1A = PIP5K1A (Homo sapiens (Human), UniProt Q99755); experiment: KINOMEscan scanMAX; format: binding; conditions: 2000 nM; read-out: Percent Control
CLK4 = CLK4 (Homo sapiens (Human), UniProt Q9HAZ1); experiment: KINOMEscan scanMAX; format: binding; conditions: 2000 nM; read-out: Percent Control
GRK1 = GRK1 (Homo sapiens (Human), UniProt Q15835); experiment: KINOMEscan scanMAX; format: binding; conditions: 2000 nM; read-out: Percent Control
PIK3CA(M1043I) = PIK3CA(M1043I) (Homo sapiens (Human), UniProt P42336, M1043I); experiment: KINOMEscan scanMAX; format: binding; conditions: 2000 nM; read-out: Percent Control
EGFR(G719C) = EGFR(G719C) (Homo sapiens (Human), UniProt P00533, G719C); experiment: KINOMEscan scanMAX; format: binding; conditions: 2000 nM; read-out: Percent Control
KIT-autoinhibited = KIT-autoinhibited (Homo sapiens (Human), UniProt P10721); experiment: KINOMEscan scanMAX; format: binding; conditions: 2000 nM; read-out: Percent Control
PIK3CA(H1047L) = PIK3CA(H1047L) (Homo sapiens (Human), UniProt P42336, H1047L); experiment: KINOMEscan scanMAX; format: binding; conditions: 2000 nM; read-out: Percent Control
SNARK (NUAK2) = SNARK (NUAK2) (Homo sapiens (Human), UniProt Q9H093); experiment: KINOMEscan scanMAX; format: binding; conditions: 2000 nM; read-out: Percent Control
MAPKAPK2 = MAPKAPK2 (Homo sapiens (Human), UniProt P49137); experiment: KINOMEscan scanMAX; format: binding; conditions: 2000 nM; read-out: Percent Control
MLK1 (MAP3K9) = MLK1 (MAP3K9) (Homo sapiens (Human), UniProt P80192); experiment: KINOMEscan scanMAX; format: binding; conditions: 2000 nM; read-out: Percent Control
TIE2 (TEK) = TIE2 (TEK) (Homo sapiens (Human), UniProt Q02763); experiment: KINOMEscan scanMAX; format: binding; conditions: 2000 nM; read-out: Percent Control
INSR = INSR (Homo sapiens (Human), UniProt P06213); experiment: KINOMEscan scanMAX; format: binding; conditions: 2000 nM; read-out: Percent Control
[2] = Serum and tumor PK at study endpoint, C4-2 xenografts; format: in vivo, mice; conditions: 6-7 hours post last dose, 40 mg/kg orally daily for 4 days
Description: CDK8/19 inhibition decreases the expression of certain androgen-receptor (AR) inducible genes including PSA, the most common marker of prostate cancer, and the growth of castration-refractory prostate cancers (CRPC). The in vivo effects of Senexin C on PSA expression by C4-2 cells were analyzed after treatment of male NcrNU mice bearing C4-2 xenografts (grouped based on tumor sizes) for 4 days at 40 mg/kg administered orally daily.

TAOK1 = TAOK1 (Homo sapiens (Human), UniProt Q7L7X3); experiment: KINOMEscan scanMAX; format: binding; conditions: 2000 nM; read-out: Percent Control
RET = RET (Homo sapiens (Human), UniProt P07949); experiment: KINOMEscan scanMAX; format: binding; conditions: 2000 nM; read-out: Percent Control
p38-gamma (MAPK12) = p38-gamma (MAPK12) (Homo sapiens (Human), UniProt P53778); experiment: KINOMEscan scanMAX; format: binding; conditions: 2000 nM; read-out: Percent Control
JNK1 (MAPK8) = JNK1 (MAPK8) (Homo sapiens (Human), UniProt P45983); experiment: KINOMEscan scanMAX; format: binding; conditions: 2000 nM; read-out: Percent Control
ZAK = ZAK (Homo sapiens (Human), UniProt Q9NYL2); experiment: KINOMEscan scanMAX; format: binding; conditions: 2000 nM; read-out: Percent Control
CAMKK1 = CAMKK1 (Homo sapiens (Human), UniProt Q8N5S9); experiment: KINOMEscan scanMAX; format: binding; conditions: 2000 nM; read-out: Percent Control
[3] = biological target: ABL1(Q252H)-nonphosphorylated (Homo sapiens (Human), UniProt P00519, Q252H); experiment: KINOMEscan scanMAX; format: binding; conditions: 2000 nM; read-out: Percent Control
ABL1-phosphorylated = ABL1-phosphorylated (Homo sapiens (Human), UniProt P00519); experiment: KINOMEscan scanMAX; format: binding; conditions: 2000 nM; read-out: Percent Control
MEK3 (MAP2K3) = MEK3 (MAP2K3) (Homo sapiens (Human), UniProt P46734); experiment: KINOMEscan scanMAX; format: binding; conditions: 2000 nM; read-out: Percent Control
ROCK1 = ROCK1 (Homo sapiens (Human), UniProt Q13464); experiment: KINOMEscan scanMAX; format: binding; conditions: 2000 nM; read-out: Percent Control
JNK2 (MAPK9) = JNK2 (MAPK9) (Homo sapiens (Human), UniProt P45984); experiment: KINOMEscan scanMAX; format: binding; conditions: 2000 nM; read-out: Percent Control
TNK1 = TNK1 (Homo sapiens (Human), UniProt Q13470); experiment: KINOMEscan scanMAX; format: binding; conditions: 2000 nM; read-out: Percent Control
[4] = biological target: GCN2(Kin.Dom.2, S808G) (EIF2AK4) (Homo sapiens (Human), UniProt Q9P2K8, S808G); experiment: KINOMEscan scanMAX; format: binding; conditions: 2000 nM; read-out: Percent Control
ROCK2 = ROCK2 (Homo sapiens (Human), UniProt O75116); experiment: KINOMEscan scanMAX; format: binding; conditions: 2000 nM; read-out: Percent Control

Sequence of TAOK1 (Q7L7X3 whole entry): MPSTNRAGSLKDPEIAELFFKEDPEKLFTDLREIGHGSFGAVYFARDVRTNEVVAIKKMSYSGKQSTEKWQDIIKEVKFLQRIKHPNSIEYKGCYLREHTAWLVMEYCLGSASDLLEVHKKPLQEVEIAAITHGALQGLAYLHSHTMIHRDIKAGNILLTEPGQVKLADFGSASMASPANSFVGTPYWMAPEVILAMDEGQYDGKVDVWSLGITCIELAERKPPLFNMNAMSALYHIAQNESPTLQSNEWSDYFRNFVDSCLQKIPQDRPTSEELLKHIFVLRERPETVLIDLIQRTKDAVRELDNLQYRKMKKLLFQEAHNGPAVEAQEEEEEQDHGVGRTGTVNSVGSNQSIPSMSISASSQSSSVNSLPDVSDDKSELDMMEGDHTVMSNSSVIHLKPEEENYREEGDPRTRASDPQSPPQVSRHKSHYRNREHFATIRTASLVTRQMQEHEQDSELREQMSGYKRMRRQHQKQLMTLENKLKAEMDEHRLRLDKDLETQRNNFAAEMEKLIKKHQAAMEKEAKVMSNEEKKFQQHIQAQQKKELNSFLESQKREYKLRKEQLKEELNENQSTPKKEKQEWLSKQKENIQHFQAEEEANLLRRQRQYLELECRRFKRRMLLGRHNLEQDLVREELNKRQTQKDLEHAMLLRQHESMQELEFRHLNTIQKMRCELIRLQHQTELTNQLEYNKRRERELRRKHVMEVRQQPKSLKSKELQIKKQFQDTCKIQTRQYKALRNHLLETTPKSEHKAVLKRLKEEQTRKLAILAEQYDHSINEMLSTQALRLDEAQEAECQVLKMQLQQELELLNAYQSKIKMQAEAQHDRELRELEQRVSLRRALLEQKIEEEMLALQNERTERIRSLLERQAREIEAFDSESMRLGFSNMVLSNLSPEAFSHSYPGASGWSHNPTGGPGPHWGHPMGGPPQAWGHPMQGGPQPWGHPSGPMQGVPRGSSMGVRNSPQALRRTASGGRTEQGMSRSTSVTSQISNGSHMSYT
Sequence of CAMKK1 (Q8N5S9 whole entry): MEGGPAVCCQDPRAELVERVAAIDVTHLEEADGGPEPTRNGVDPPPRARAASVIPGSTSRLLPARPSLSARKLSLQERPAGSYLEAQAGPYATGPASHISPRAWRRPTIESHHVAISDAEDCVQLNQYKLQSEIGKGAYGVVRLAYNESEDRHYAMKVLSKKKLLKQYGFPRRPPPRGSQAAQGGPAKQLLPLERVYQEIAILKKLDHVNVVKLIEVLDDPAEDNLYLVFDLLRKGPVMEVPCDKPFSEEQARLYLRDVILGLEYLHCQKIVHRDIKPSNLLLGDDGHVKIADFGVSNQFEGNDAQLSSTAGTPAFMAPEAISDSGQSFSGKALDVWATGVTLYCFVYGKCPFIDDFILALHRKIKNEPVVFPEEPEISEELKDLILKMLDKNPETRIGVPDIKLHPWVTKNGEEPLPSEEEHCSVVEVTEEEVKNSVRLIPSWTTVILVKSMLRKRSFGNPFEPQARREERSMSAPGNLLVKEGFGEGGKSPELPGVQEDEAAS
Sequence of SNARK (NUAK2) (Q9H093 whole entry): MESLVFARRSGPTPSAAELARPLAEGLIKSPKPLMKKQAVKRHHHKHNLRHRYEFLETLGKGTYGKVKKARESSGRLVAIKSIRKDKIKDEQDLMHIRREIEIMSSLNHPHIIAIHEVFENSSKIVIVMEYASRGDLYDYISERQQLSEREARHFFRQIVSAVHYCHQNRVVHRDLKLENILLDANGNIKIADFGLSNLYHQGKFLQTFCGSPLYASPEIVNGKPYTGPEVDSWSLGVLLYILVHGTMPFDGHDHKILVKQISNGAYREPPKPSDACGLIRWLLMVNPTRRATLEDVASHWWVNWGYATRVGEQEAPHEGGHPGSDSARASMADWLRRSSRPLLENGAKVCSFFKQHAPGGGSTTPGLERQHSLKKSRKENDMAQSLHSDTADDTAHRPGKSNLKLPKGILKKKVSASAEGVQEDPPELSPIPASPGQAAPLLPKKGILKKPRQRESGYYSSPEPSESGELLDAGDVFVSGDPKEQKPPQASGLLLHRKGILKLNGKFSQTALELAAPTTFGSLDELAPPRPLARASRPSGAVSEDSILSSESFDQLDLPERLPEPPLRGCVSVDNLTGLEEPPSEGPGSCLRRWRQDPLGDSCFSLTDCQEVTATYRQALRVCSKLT
Sequence of ROCK1 (Q13464 whole entry): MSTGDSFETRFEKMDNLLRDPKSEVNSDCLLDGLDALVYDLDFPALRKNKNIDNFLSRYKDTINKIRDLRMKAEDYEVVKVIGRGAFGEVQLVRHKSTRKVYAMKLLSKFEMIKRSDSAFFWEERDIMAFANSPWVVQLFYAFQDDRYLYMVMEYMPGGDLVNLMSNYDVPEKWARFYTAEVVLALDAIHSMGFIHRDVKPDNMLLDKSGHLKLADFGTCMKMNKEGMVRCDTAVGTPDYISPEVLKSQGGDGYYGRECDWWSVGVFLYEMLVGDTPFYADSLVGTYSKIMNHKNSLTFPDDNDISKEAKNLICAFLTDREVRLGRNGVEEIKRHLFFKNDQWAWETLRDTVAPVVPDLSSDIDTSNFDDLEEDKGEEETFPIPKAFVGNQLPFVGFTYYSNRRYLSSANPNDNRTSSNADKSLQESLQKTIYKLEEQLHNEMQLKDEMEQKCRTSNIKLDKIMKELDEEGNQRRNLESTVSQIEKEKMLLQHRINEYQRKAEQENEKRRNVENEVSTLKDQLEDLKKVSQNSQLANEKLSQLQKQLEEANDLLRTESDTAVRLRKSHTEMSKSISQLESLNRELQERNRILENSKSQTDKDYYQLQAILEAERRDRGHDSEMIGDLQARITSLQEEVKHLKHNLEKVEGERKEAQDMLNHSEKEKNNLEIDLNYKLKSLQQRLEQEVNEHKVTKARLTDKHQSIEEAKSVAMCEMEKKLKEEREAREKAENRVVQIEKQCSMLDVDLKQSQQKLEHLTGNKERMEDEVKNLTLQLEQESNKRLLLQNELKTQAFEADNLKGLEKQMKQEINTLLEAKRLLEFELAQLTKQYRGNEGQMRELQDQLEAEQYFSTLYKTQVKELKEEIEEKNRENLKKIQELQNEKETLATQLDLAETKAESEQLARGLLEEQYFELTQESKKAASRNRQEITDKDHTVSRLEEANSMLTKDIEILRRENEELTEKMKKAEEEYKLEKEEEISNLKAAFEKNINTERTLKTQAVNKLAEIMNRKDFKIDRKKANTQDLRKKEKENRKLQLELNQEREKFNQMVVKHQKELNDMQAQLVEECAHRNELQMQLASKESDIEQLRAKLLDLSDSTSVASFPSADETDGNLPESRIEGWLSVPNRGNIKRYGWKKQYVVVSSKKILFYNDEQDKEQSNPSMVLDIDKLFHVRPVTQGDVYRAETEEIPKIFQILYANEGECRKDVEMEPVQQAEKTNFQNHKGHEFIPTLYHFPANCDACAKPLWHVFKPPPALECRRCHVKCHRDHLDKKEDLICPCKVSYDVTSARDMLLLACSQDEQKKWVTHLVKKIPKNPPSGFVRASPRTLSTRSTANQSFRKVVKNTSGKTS
Sequence of MLK1 (MAP3K9) (P80192 whole entry): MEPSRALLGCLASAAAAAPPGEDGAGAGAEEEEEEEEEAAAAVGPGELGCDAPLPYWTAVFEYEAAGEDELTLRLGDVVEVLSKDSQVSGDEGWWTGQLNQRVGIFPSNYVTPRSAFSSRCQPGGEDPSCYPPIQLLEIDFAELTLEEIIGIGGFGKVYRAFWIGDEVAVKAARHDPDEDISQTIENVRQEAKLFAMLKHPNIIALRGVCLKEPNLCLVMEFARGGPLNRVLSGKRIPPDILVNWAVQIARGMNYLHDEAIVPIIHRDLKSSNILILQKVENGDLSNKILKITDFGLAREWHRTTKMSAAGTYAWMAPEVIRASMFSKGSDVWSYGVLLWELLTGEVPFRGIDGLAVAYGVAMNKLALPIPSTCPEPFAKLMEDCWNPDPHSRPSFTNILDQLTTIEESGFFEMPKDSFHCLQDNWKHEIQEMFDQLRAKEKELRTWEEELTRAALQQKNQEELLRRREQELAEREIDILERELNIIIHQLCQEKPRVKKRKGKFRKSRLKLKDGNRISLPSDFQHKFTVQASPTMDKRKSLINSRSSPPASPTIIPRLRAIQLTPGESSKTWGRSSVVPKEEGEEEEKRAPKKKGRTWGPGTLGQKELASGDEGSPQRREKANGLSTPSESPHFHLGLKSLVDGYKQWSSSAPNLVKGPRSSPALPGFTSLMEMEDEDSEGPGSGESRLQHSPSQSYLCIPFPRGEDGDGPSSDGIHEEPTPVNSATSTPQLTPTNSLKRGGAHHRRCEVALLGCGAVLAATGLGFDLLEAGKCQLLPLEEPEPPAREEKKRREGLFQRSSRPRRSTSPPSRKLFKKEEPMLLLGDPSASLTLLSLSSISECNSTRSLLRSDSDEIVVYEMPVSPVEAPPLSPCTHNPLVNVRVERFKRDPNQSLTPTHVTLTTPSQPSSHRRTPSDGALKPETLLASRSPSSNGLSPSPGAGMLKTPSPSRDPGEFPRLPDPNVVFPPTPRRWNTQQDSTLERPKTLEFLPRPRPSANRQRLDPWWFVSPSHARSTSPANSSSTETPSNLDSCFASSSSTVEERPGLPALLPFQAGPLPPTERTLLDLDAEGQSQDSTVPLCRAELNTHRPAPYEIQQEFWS
Sequence of MAPKAPK2 (P49137 whole entry): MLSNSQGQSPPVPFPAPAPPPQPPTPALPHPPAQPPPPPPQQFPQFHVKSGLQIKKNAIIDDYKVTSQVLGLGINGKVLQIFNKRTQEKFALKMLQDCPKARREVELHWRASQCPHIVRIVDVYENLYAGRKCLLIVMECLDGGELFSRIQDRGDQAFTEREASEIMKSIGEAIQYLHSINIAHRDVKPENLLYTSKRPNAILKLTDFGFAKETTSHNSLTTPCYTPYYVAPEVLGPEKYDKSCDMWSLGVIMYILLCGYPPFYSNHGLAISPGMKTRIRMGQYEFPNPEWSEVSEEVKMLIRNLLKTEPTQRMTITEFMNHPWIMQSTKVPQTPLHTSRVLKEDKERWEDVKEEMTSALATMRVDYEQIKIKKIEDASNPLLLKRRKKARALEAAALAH

## CN1CCN(C(=O)c2ccc3cc(CCNc4ccnc5ccc(C#N)cc45)ccc3c2)CC1 [compound 6148, 4-((2-(6-(4-methylpiperazine-1-carbonyl)naphthalen-2-yl)ethyl)amino)quinoline-6-carbonitrile]
MRCKA (CDC42BPA)
  remaining binding at 2 µM: 98%
BUB1
  remaining binding at 2 µM: 68%
PIM3
  remaining binding at 2 µM: 96%
[1]; i.p. 19 mg/kg, female FVB mice
  elimination rate k: 0.94 h⁻¹
  t1/2: 44.4 min
[1]; i.p., mice
  Half-life higher than Senexin B: > 4 fold
[1]; mouse, serum, ip, i.p. 19 mg/kg, female FVB mice
  half-life: 44.4 min
[1]; mouse, serum, ip, i.p. 19 mg/kg, female FVB mice, read-out: AUC
  AUC: 1570 ng·h/mL
[1]; mouse, serum, ip, i.p. 19 mg/kg, female FVB mice, read-out: Cmax
  Cmax: 1160 ng/mL
[1]; mouse, serum, ip, i.p. 19 mg/kg, female FVB mice, read-out: bioavailability (F %)
  bioavailability: 73%
DAPK3
  remaining binding at 2 µM: 95%
MAP3K4
  remaining binding at 2 µM: 81%
PKN1
  remaining binding at 2 µM: 100%
MINK (MINK1)
  remaining binding at 2 µM: 56%
PIP5K1A
  remaining binding at 2 µM: 84%
CLK4
  remaining binding at 2 µM: 69%
GRK1
  remaining binding at 2 µM: 63%
PIK3CA(M1043I)
  remaining binding at 2 µM: 80%
EGFR(G719C)
  remaining binding at 2 µM: 93%
KIT-autoinhibited
  remaining binding at 2 µM: 88%
PIK3CA(H1047L)
  remaining binding at 2 µM: 84%
SNARK (NUAK2)
  remaining binding at 2 µM: 75%
MAPKAPK2
  remaining binding at 2 µM: 91%
MLK1 (MAP3K9)
  remaining binding at 2 µM: 87%
TIE2 (TEK)
  remaining binding at 2 µM: 89%
INSR
  remaining binding at 2 µM: 93%
[2]
  Drug concentration in tumor tissues vs serum: higher Senexin C drug concentration in tumor tissues
TAOK1
  remaining binding at 2 µM: 76%
RET
  remaining binding at 2 µM: 100%
p38-gamma (MAPK12)
  remaining binding at 2 µM: 100%
JNK1 (MAPK8)
  remaining binding at 2 µM: 54%
ZAK
  remaining binding at 2 µM: 94%
CAMKK1
  remaining binding at 2 µM: 100%
[3]
  remaining binding at 2 µM: 73%
ABL1-phosphorylated
  remaining binding at 2 µM: 67%
MEK3 (MAP2K3)
  remaining binding at 2 µM: 87%
ROCK1
  remaining binding at 2 µM: 52%
JNK2 (MAPK9)
  remaining binding at 2 µM: 67%
TNK1
  remaining binding at 2 µM: 95%
[4]
  remaining binding at 2 µM: 93%
ROCK2
  remaining binding at 2 µM: 71%
